# Assay results: paper PMC5365648, “Pharmacokinetics of the Novel Echinocandin CD101 in Multiple Animal Species” (Antimicrobial Agents and Chemotherapy, 2017)
# Entries after “also recorded” stand apart in the source; their conditions may differ. Read-outs that look alike come from different tables or passages of the source. Starred links: 1 amine or outer side, 2 acyl side, 3 side chain; linkers in the order of their positions; H or OH if unused. Positions of bridges follow the written chain, without caps; N, C: chain ends. Non-standard residues stand in square brackets, D forms with d. Residues, ends and D or L forms follow the SMILES beside them. *: point of attachment. Orn(4R-OH,5R-OCH2CH2NMe3+) = C[N+](C)(C)CCO[C@@H](N[*:3])[C@H](O)C[C@H](N[*:1])C(=O)[*:2]; pTerphenylCO(4''-OnC5H11) = CCCCCOc1ccc(-c2ccc(-c3ccc(C(=O)*)cc3)cc2)cc1; hTyr(3S-OH,4S-OH) = N[C@H](C(=O)O)[C@H](O)[C@@H](O)c1ccc(O)cc1; Pro(3S-OH,4S-Me) = C[C@H]1CN[C@H](C(=O)O)[C@H]1O; Hyp = O=C(O)[C@@H]1C[C@@H](O)CN1
# Experiments:
# [1] = Rat pharmacokinetics, i.v. bolus; format: in vivo, Sprague-Dawley rats
# Method: In one of three rat studies reported here, a single 5-, 15-, or 45-mg/kg dose of CD101 was administered by slow i.v. bolus (∼3 min) to Sprague-Dawley rats (n = 3 to 5/dose). Blood samples (via jugular vein catheter [JVC]) were drawn for plasma processing at 0.083, 0.25, 0.5, 1, 2, 4, 8, 24, 48, 120, 168, and 240 h after dosing. In the second rat study, conducted to assess tissue distribution, a single 5-mg/kg dose of CD101 was administered by slow i.v. bolus (∼3 min) to male Sprague-Dawley rats (n = 3 animals/time point). Blood samples (via cardiac puncture) were collected for plasma processing predose and at 0.083, 0.5, 1, 2, 4, 8, 24, 48, 72, 96, and 120 h postdose. In parallel with blood collection, animals were euthanized, and tissues (liver, lungs, kidneys, heart, spleen, and brain) were excised and frozen prior to analysis. In the third rat study, conducted to assess excretion, a single 5-mg/kg dose of CD101 was administered by slow i.v. bolus (∼3 min) to bile duct-cannulated male Sprague-Dawley rats (n = 3). Bile samples were collected from each animal into prelabeled bile collection tubes predose and at 0 to 8, 8 to 24, 24 to 48, 48 to 72, 72 to 96, and 96 to 120 h postdose; urine samples were collected from each animal at the same time points pre- and postdose.
# (§1) For each of the pharmacokinetic studies, whole-blood samples (K3EDTA as anticoagulant) were collected and centrifuged within 30 min of collection. The resulting plasma was harvested and stored at −20°C until analysis. Tissue samples were homogenized by a bead-based homogenizer following the addition of deionized water to excised tissue in a 2:1 (vol/wt) ratio and stored at −20°C until analysis. Prior to analysis, plasma or homogenized tissue samples were quenched with acetonitrile (3:1, acetonitrile-plasma or tissue ratio) containing an appropriate internal standard (isotopically labeled d9-CD101 [mouse and rat] or a structural analog [dog, monkey, and chimpanzee]). Plasma and tissue homogenate concentrations (quantified against calibration standards processed the same way) were determined by reverse-phase, gradient liquid chromatography with tandem mass spectrometric detection (LC-MS/MS) using an AB-SCIEX API 3200Q/4000 mass spectrometry system. Calibration standard ranges were the following: 0.400 (lower limit of quantitation, [LLOQ]) to 200 μg/ml (CD101, mouse), 0.040 (LLOQ) to 10 μg/ml (anidulafungin, mouse), 0.002 (LLOQ) to 10 μg/ml (CD101, rat), 0.005 (LLOQ) to 10 μg/ml (anidulafungin, rat), 0.050 (LLOQ) to 10 μg/ml (CD101, dog), 0.020 (LLOQ) to 10 μg/ml (anidulafungin, dog), 0.010 (LLOQ) to 10 μg/ml (CD101, monkey), 0.001 (LLOQ) to 10 μg/ml (anidulafungin, monkey), 0.015 (LLOQ) to 10 μg/ml (CD101, chimpanzee), and 0.015 (LLOQ) to 10 μg/ml (anidulafungin, chimpanzee). When necessary, dilutions with blank matrix were made for samples that quantified above the upper limit of quantitation. The methods used in the analysis were qualified as fit for purpose: calibration standards were matrix matched with the exception that human plasma calibration standards were used to analyze chimpanzee plasma samples due to the rarity of blank chimpanzee plasma, and, for each analytical batch, triplicate calibration standards were included at the beginning, approximately in the middle, and at the end of the batch. Following analysis, quantitation was carried out by a calibration curve comprising the analyte/internal standard area ratio versus concentration. Analytical batch acceptance followed the general guidance that triplicate standards/quality controls be within ±20% for accuracy (percentage of nominal concentration) and ≤20% for precision (percent coefficient of variation).
# (§2) Pharmacokinetic parameters were calculated by noncompartmental analysis using Phoenix WinNonlin (version 6.3; Pharsight, Mountain View, CA) from either individual or mean (mouse) concentration-time profiles. An unpaired t test was used to compare mean exposures from male and female rats.
# [2] = Dog pharmacokinetics, i.v. bolus; conditions: in vivo, iv, male beagle dogs, single 1.4 mg/kg slow i.v. bolus, plasma, LC-MS/MS, noncompartmental
# Method: as §1, §2
# [3] = rat, in vivo, iv, 5 mg/kg, female Sprague-Dawley rats, single 5 mg/kg slow i.v. bolus, plasma, LC-MS/MS, noncompartmental, n = 3 to 5/dose
# [4] = rat, in vivo, iv, 5 mg/kg, male Sprague-Dawley rats, single 5 mg/kg slow i.v. bolus, plasma, LC-MS/MS, noncompartmental, n = 3 to 5/dose
# [5] = rat, in vivo, iv, 15 mg/kg, female Sprague-Dawley rats, single 15 mg/kg slow i.v. bolus, plasma, LC-MS/MS, noncompartmental, n = 3 to 5/dose
# [6] = rat, in vivo, iv, 15 mg/kg, male Sprague-Dawley rats, single 15 mg/kg slow i.v. bolus, plasma, LC-MS/MS, noncompartmental, n = 3 to 5/dose
# [7] = rat, in vivo, iv, 45 mg/kg, female Sprague-Dawley rats, single 45 mg/kg slow i.v. bolus, plasma, LC-MS/MS, noncompartmental, n = 3 to 5/dose
# [8] = rat, in vivo, iv, 45 mg/kg, male Sprague-Dawley rats, single 45 mg/kg slow i.v. bolus, plasma, LC-MS/MS, noncompartmental, n = 3 to 5/dose
smiles,measurement,setting,value
"CCCCCOc1ccc(-c2ccc(-c3ccc(C(=O)N[C@H]4C[C@@H](O)[C@@H](OCC[N+](C)(C)C)NC(=O)[C@@H]5[C@@H](O)[C@@H](C)CN5C(=O)[C@H]([C@@H](C)O)NC(=O)[C@H]([C@H](O)[C@@H](O)c5ccc(O)cc5)NC(=O)[C@@H]5C[C@@H](O)CN5C(=O)[C@H]([C@@H](C)O)NC4=O)cc3)cc2)cc1 [CD101] ({pTerphenylCO(4''-OnC5H11)}-[Orn(4R-OH,5R-OCH2CH2NMe3+)]T[Hyp][hTyr(3S-OH,4S-OH)]T[Pro(3S-OH,4S-Me)]; lactam 1-C)",Tmax,"[1]; female Sprague-Dawley rats, single 5 mg/kg slow i.v. bolus, plasma, LC-MS/MS, noncompartmental, n = 3 to 5/dose",4.98 min
same,Tmax,"[1]; male Sprague-Dawley rats, single 15 mg/kg slow i.v. bolus, plasma, LC-MS/MS, noncompartmental, n = 3 to 5/dose",4.98 min
same,Tmax,"[1]; male Sprague-Dawley rats, single 45 mg/kg slow i.v. bolus, plasma, LC-MS/MS, noncompartmental, n = 3 to 5/dose",4.98 min
same,AUC(0-inf),[1]; [3],188 µg·h/mL
same,AUC(0-t),[1]; [3],185 µg·h/mL
same,Cmax,[1]; [3],10500 ng/mL
same,half-life,[1]; [3],35.7 h
same,clearance,"[1]; rat, in vivo, iv, 5 mg/kg, female Sprague-Dawley rats, single 5 mg/kg slow i.v. bolus, plasma, LC-MS/MS, noncompartmental, n = 3 to 5/dose, read-out: CL (clearance)",0.444 mL/min/kg
same,Vd,"[1]; rat, in vivo, iv, 5 mg/kg, female Sprague-Dawley rats, single 5 mg/kg slow i.v. bolus, plasma, LC-MS/MS, noncompartmental, n = 3 to 5/dose, read-out: Vss (volume of distribution at steady state)",1.21 L/kg
same,AUC(0-inf),[1]; [4],183 µg·h/mL
same,AUC(0-t),[1]; [4],180 µg·h/mL
same,Cmax,[1]; [4],12000 ng/mL
same,half-life,[1]; [4],34.9 h
same,clearance,"[1]; rat, in vivo, iv, 5 mg/kg, male Sprague-Dawley rats, single 5 mg/kg slow i.v. bolus, plasma, LC-MS/MS, noncompartmental, n = 3 to 5/dose, read-out: CL (clearance)",0.456 mL/min/kg
same,Vd,"[1]; rat, in vivo, iv, 5 mg/kg, male Sprague-Dawley rats, single 5 mg/kg slow i.v. bolus, plasma, LC-MS/MS, noncompartmental, n = 3 to 5/dose, read-out: Vss (volume of distribution at steady state)",1.16 L/kg
same,AUC(0-inf),[1]; [5],441 µg·h/mL
same,AUC(0-t),[1]; [5],435 µg·h/mL
same,Cmax,[1]; [5],27600 ng/mL
same,half-life,[1]; [5],34.9 h
same,clearance,"[1]; rat, in vivo, iv, 15 mg/kg, female Sprague-Dawley rats, single 15 mg/kg slow i.v. bolus, plasma, LC-MS/MS, noncompartmental, n = 3 to 5/dose, read-out: CL (clearance)",0.567 mL/min/kg
same,Vd,"[1]; rat, in vivo, iv, 15 mg/kg, female Sprague-Dawley rats, single 15 mg/kg slow i.v. bolus, plasma, LC-MS/MS, noncompartmental, n = 3 to 5/dose, read-out: Vss (volume of distribution at steady state)",1.45 L/kg
same,AUC(0-inf),[1]; [6],580 µg·h/mL
same,AUC(0-t),[1]; [6],562 µg·h/mL
same,Cmax,[1]; [6],35900 ng/mL
same,half-life,[1]; [6],42.7 h
same,clearance,"[1]; rat, in vivo, iv, 15 mg/kg, male Sprague-Dawley rats, single 15 mg/kg slow i.v. bolus, plasma, LC-MS/MS, noncompartmental, n = 3 to 5/dose, read-out: CL (clearance)",0.431 mL/min/kg
same,Vd,"[1]; rat, in vivo, iv, 15 mg/kg, male Sprague-Dawley rats, single 15 mg/kg slow i.v. bolus, plasma, LC-MS/MS, noncompartmental, n = 3 to 5/dose, read-out: Vss (volume of distribution at steady state)",1.42 L/kg
same,AUC(0-inf),[1]; [7],1510 µg·h/mL
same,AUC(0-t),[1]; [7],1490 µg·h/mL
same,Cmax,[1]; [7],115000 ng/mL
same,half-life,[1]; [7],39.9 h
same,clearance,"[1]; rat, in vivo, iv, 45 mg/kg, female Sprague-Dawley rats, single 45 mg/kg slow i.v. bolus, plasma, LC-MS/MS, noncompartmental, n = 3 to 5/dose, read-out: CL (clearance)",0.496 mL/min/kg
same,Vd,"[1]; rat, in vivo, iv, 45 mg/kg, female Sprague-Dawley rats, single 45 mg/kg slow i.v. bolus, plasma, LC-MS/MS, noncompartmental, n = 3 to 5/dose, read-out: Vss (volume of distribution at steady state)",1.55 L/kg
same,AUC(0-inf),[1]; [8],1660 µg·h/mL
same,AUC(0-t),[1]; [8],1610 µg·h/mL
same,Cmax,[1]; [8],164000 ng/mL
same,half-life,[1]; [8],44.5 h
same,clearance,"[1]; rat, in vivo, iv, 45 mg/kg, male Sprague-Dawley rats, single 45 mg/kg slow i.v. bolus, plasma, LC-MS/MS, noncompartmental, n = 3 to 5/dose, read-out: CL (clearance)",0.452 mL/min/kg
same,Vd,"[1]; rat, in vivo, iv, 45 mg/kg, male Sprague-Dawley rats, single 45 mg/kg slow i.v. bolus, plasma, LC-MS/MS, noncompartmental, n = 3 to 5/dose, read-out: Vss (volume of distribution at steady state)",1.57 L/kg
same,Vd,"[1]; rat, in vivo, iv, rat, intravenous, one value for the species as given in the abstract (doses 5, 15, 45 mg/kg, both sexes in Table 1), read-out: Vss",1.39 L/kg
same,clearance,"[1]; rat, in vivo, iv, rat, intravenous, one value for the species as given in the abstract (doses 5, 15, 45 mg/kg, both sexes in Table 1), read-out: clearance",0.47 mL/min/kg
same,Tmax,"[1]; rat, in vivo, iv, female Sprague-Dawley rats, single 15 mg/kg slow i.v. bolus, plasma, LC-MS/MS, noncompartmental, n = 3 to 5/dose, read-out: Tmax",4.98 min
same,Tmax,"[1]; rat, in vivo, iv, female Sprague-Dawley rats, single 45 mg/kg slow i.v. bolus, plasma, LC-MS/MS, noncompartmental, n = 3 to 5/dose, read-out: Tmax",4.98 min
same,Tmax,"[1]; rat, in vivo, iv, male Sprague-Dawley rats, single 5 mg/kg slow i.v. bolus, plasma, LC-MS/MS, noncompartmental, n = 3 to 5/dose, read-out: Tmax",4.98 min
same,half-life,"[1]; rat, in vivo, iv, one value for the species as given in the abstract (doses 5, 15, 45 mg/kg, both sexes in Table 1)",39 h
same,PK differences between males and females,[1]; rats (Table 1) or monkeys (data not shown),no sex differences; also recorded: No PK differences between males and females
same,AUC(0-t),[2]; n = 4,48.7 µg·h/mL
same,Cmax,[2]; n = 4,1570 ng/mL
same,Tmax,[2]; n = 4,4.98 min
same,clearance,"[2]; n = 4, read-out: CL (clearance)",0.301 mL/min/kg
